Results taken from PubChem BioAssay (NCI).
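The compound was tested at five concentrations on cells cultured in 96-well plates, with a 48-hour exposure period. GI50 = concentration required for 50% inhibition of growth. TGI: total growth inhibition.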

Assays:
Experiment in all cases: growth of human tumour cells (NCI), 48 h
[1] = system: 786-0 renal
[2] = system: A498 renal
[3] = system: A549 NSCLC
[4] = system: ACHN renal
[5] = system: BT-549 breast
[6] = system: CAKI-1 renal
[7] = system: CCRF-CEM leukemia
[8] = system: COLO 205 colon
[9] = system: DU-145 prostate
[10] = system: EKVX NSCLC
[11] = system: HCC-2998 colon
[12] = system: HCT-116 colon
[13] = system: HCT-15 colon
[14] = system: HL-60(TB) leukemia
[15] = system: HOP-62 NSCLC
[16] = system: HOP-92 NSCLC
[17] = system: HS 578T breast
[18] = system: HT29 colon
[19] = system: IGROV1 ovarian
[20] = system: K-562 leukemia
[21] = system: KM12 colon
[22] = system: LOX IMVI melanoma
[23] = system: M14 melanoma
[24] = system: MALME-3M melanoma
[25] = system: MCF7 breast
[26] = system: MDA-MB-231 breast
[27] = system: MDA-MB-435
[28] = system: MOLT-4 leukemia
[29] = system: NCI-H226 lung
[30] = system: NCI-H23 lung
[31] = system: NCI-H460 lung
[32] = system: NCI-H522 lung
[33] = system: NCI/ADR-RES ovarian
[34] = system: OVCAR-3 ovarian
[35] = system: OVCAR-4 ovarian
[36] = system: OVCAR-5 ovarian
[37] = system: OVCAR-8 ovarian
[38] = system: PC-3 prostate
[39] = system: RPMI-8226 leukemia
[40] = system: RXF 393 renal
[41] = system: SF-268 CNS
[42] = system: SF-295 CNS
[43] = system: SF-539 CNS
[44] = system: SK-MEL-2 melanoma
[45] = system: SK-MEL-28 melanoma
[46] = system: SK-MEL-5 melanoma
[47] = system: SK-OV-3 ovarian
[48] = system: SN12C renal
[49] = system: SNB-19 CNS
[50] = system: SNB-75 CNS
[51] = system: SW-620 colon
[52] = system: T-47D breast
[53] = system: TK-10 renal
[54] = system: U251 CNS
[55] = system: UACC-257 melanoma
[56] = system: UACC-62 melanoma
[57] = system: UO-31 renal
[58] = system: SR leukemia

For CC1=CC(C)(C)Nc2ccc(Cc3ccc4c(c3)C(C)=CC(C)(C)N4)cc21, the GI50 [1] was 26 µM, the TGI [1] was over 100 µM and the GI50 [2] was 10.9 µM. The TGI [2] was 61.4 µM, the GI50 [3] was 12.2 µM and the TGI [3] was over 100 µM. It also gave a GI50 [4] of 11.1 µM, a TGI [4] of over 100 µM and a GI50 [5] of 28.4 µM. The TGI [5] was over 100 µM, the GI50 [6] was 13 µM and the TGI [6] was over 100 µM. For the same compound, the GI50 [7] was 4.67 µM, the TGI [7] was 59.6 µM and the GI50 [8] was 20.3 µM. It also gave a TGI [8] of 45.2 µM, a GI50 [9] of 10.1 µM and a TGI [9] of 76.1 µM. For the same compound, the GI50 [10] was 5.67 µM, the TGI [10] was over 100 µM and the GI50 [11] was 20.6 µM. For the same compound, the TGI [11] was over 100 µM, the GI50 [12] was 8.69 µM and the TGI [12] was 43.9 µM. It also gave a GI50 [13] of 13.8 µM, a TGI [13] of 72.6 µM and a GI50 [14] of 5.1 µM. It also gave a TGI [14] of 34.1 µM, a GI50 [15] of 21.3 µM and a TGI [15] of over 100 µM. It also gave a GI50 [16] of 8.42 µM, a TGI [16] of 65.6 µM and a GI50 [17] of 8.14 µM. It also gave a TGI [17] of 47.4 µM, a GI50 [18] of 12.2 µM and a TGI [18] of over 100 µM. The GI50 [19] was 16.1 µM, the TGI [19] was over 100 µM and the GI50 [20] was 3.6 µM. It also gave a TGI [20] of 51.8 µM, a GI50 [21] of 8.34 µM and a TGI [21] of 72.6 µM. For the same compound, the GI50 [22] was 15.1 µM, the TGI [22] was 82.2 µM and the GI50 [23] was 28.4 µM. It also gave a TGI [23] of over 100 µM, a GI50 [24] of 11.8 µM and a TGI [24] of 42 µM. The GI50 [25] was 5.23 µM, the TGI [25] was 26.3 µM and the GI50 [26] was 15.7 µM. The TGI [26] was 64.2 µM, the GI50 [27] was 16.5 µM and the TGI [27] was over 100 µM. It also gave a GI50 [28] of 4.86 µM, a TGI [28] of 54 µM and a GI50 [29] of 20.2 µM. For the same compound, the TGI [29] was over 100 µM, the GI50 [30] was 4.54 µM and the TGI [30] was over 100 µM. It also gave a GI50 [31] of 12 µM, a TGI [31] of 55.1 µM and a GI50 [32] of 3.56 µM. The TGI [32] was 16.1 µM, the GI50 [33] was 18.1 µM and the TGI [33] was over 100 µM. It also gave a GI50 [34] of 6.4 µM, a TGI [34] of 21.3 µM and a GI50 [35] of 7.24 µM. It also gave a TGI [35] of over 100 µM, a GI50 [36] of 52.3 µM and a TGI [36] of over 100 µM. It also gave a GI50 [37] of 9.59 µM, a TGI [37] of 56.8 µM and a GI50 [38] of 4.26 µM. The TGI [38] was over 100 µM, the GI50 [39] was 2.02 µM and the TGI [39] was 23.5 µM. For the same compound, the GI50 [40] was 22 µM, the TGI [40] was 88.7 µM and the GI50 [41] was 16.6 µM. It also gave a TGI [41] of over 100 µM, a GI50 [42] of 9.78 µM and a TGI [42] of over 100 µM. The GI50 [43] was 23.6 µM, the TGI [43] was 89.3 µM and the GI50 [44] was 12.5 µM. For the same compound, the TGI [44] was 40.6 µM, the GI50 [45] was 20.3 µM and the TGI [45] was over 100 µM. It also gave a GI50 [46] of 9.05 µM, a TGI [46] of 22 µM and a GI50 [47] of 17.7 µM. For the same compound, the TGI [47] was 97.1 µM, the GI50 [48] was 11.2 µM and the TGI [48] was over 100 µM. The GI50 [49] was 17.2 µM, the TGI [49] was over 100 µM and the GI50 [50] was 14.8 µM. For the same compound, the TGI [50] was over 100 µM, the GI50 [51] was 11.5 µM and the TGI [51] was 25.5 µM. It also gave a GI50 [52] of 3.77 µM, a TGI [52] of 35.2 µM and a GI50 [53] of 16.8 µM. For the same compound, the TGI [53] was 92.8 µM, the GI50 [54] was 3.96 µM and the TGI [54] was over 100 µM. The GI50 [55] was 7.06 µM, the TGI [55] was 72.1 µM and the GI50 [56] was 6.95 µM. It also gave a TGI [56] of 29 µM, a GI50 [57] of 7.27 µM and a TGI [57] of 65.8 µM.

C=C1C(=O)O[C@H]2[C@H]1CC/C(COC(=O)CCCCCCCC(=O)OC/C1=C/CC[C@@]3(C)O[C@H]3[C@H]3OC(=O)C(=C)[C@@H]3CC1)=C\CC[C@@]1(C)O[C@@H]21 showed a GI50 [1] of 1.68 µM, a TGI [1] of 3.63 µM and a GI50 [2] of 12.3 µM. For the same compound, the TGI [2] was 28.7 µM, the GI50 [3] was 11.1 µM and the TGI [3] was 28.8 µM. It also gave a GI50 [4] of 1.85 µM, a TGI [4] of 5.51 µM and a GI50 [5] of 1.59 µM. For the same compound, the TGI [5] was 3.45 µM, the GI50 [7] was 0.476 µM and the TGI [7] was 7.49 µM. It also gave a GI50 [8] of 1.76 µM, a TGI [8] of 3.78 µM and a GI50 [9] of 2.9 µM. It also gave a TGI [9] of 10.8 µM, a GI50 [10] of 2.55 µM and a TGI [10] of 8.87 µM. The GI50 [11] was 1.9 µM, the TGI [11] was 3.88 µM and the GI50 [13] was 1.75 µM. The TGI [13] was 4.16 µM, the GI50 [14] was 1.04 µM and the TGI [14] was 4.87 µM. The GI50 [15] was 2.19 µM, the TGI [15] was 5.68 µM and the GI50 [16] was 2.16 µM. It also gave a TGI [16] of 5.07 µM, a GI50 [17] of 3.84 µM and a TGI [17] of 27.3 µM. It also gave a GI50 [18] of 2.02 µM, a TGI [18] of 4.23 µM and a GI50 [19] of 2.22 µM. For the same compound, the TGI [19] was 5.92 µM, the GI50 [20] was 0.927 µM and the TGI [20] was 10.8 µM. It also gave a GI50 [21] of 1.95 µM, a TGI [21] of 4.26 µM and a GI50 [22] of 1.48 µM. It also gave a TGI [22] of 2.95 µM, a GI50 [23] of 1.77 µM and a TGI [23] of 4.11 µM. For the same compound, the GI50 [24] was 2.17 µM, the TGI [24] was 5.3 µM and the GI50 [26] was 1.98 µM. For the same compound, the TGI [26] was 4.61 µM, the GI50 [27] was 2.59 µM and the TGI [27] was 7.33 µM. It also gave a GI50 [28] of 0.791 µM, a TGI [28] of 11.4 µM and a GI50 [29] of 2.63 µM. It also gave a TGI [29] of 6.97 µM, a GI50 [30] of 2.26 µM and a TGI [30] of 6.52 µM. For the same compound, the GI50 [31] was 3.06 µM, the TGI [31] was 9.1 µM and the GI50 [32] was 1.97 µM. It also gave a TGI [32] of 3.92 µM, a GI50 [33] of 3.35 µM and a TGI [33] of over 100 µM. For the same compound, the GI50 [34] was 1.32 µM, the TGI [34] was 2.79 µM and the GI50 [35] was 4.58 µM. For the same compound, the TGI [35] was 20.1 µM, the GI50 [36] was 2.48 µM and the TGI [36] was 7.01 µM. For the same compound, the GI50 [37] was 2.75 µM, the TGI [37] was 8.44 µM and the GI50 [38] was 1.96 µM. The TGI [38] was 4.62 µM, the GI50 [39] was 1.31 µM and the TGI [39] was 6.46 µM. It also gave a GI50 [40] of 1.43 µM, a TGI [40] of 2.88 µM and a GI50 [41] of 2.3 µM. The TGI [41] was 7.41 µM, the GI50 [42] was 3.6 µM and the TGI [42] was 15.2 µM. It also gave a GI50 [43] of 1.83 µM, a TGI [43] of 3.83 µM and a GI50 [44] of 11.3 µM. For the same compound, the TGI [44] was 31.5 µM, the GI50 [45] was 2.94 µM and the TGI [45] was 11.4 µM. For the same compound, the GI50 [46] was 1.98 µM, the TGI [46] was 4.1 µM and the GI50 [47] was 13.1 µM. The TGI [47] was 34.3 µM, the GI50 [48] was 2.75 µM and the TGI [48] was 9.33 µM. It also gave a GI50 [49] of 4.85 µM, a TGI [49] of 19.2 µM and a GI50 [50] of 12.3 µM. The TGI [50] was 35.9 µM, the GI50 [58] was 0.398 µM and the TGI [58] was 10.6 µM. The GI50 [51] was 1.46 µM, the TGI [51] was 3.24 µM and the GI50 [52] was 2.3 µM. For the same compound, the TGI [52] was 8.26 µM, the GI50 [53] was 2.94 µM and the TGI [53] was 7.03 µM. For the same compound, the GI50 [54] was 2.13 µM, the TGI [54] was 5.37 µM and the GI50 [55] was 2.13 µM. It also gave a TGI [55] of 4.64 µM, a GI50 [56] of 2.45 µM and a TGI [56] of 6.51 µM. For the same compound, the GI50 [57] was 1.5 µM and the TGI [57] was 3.79 µM.
